From patent publication US8450308B2 (Vitae Pharmaceuticals, Inc., priority 2008, dated 2013)
Read-outs that look alike come from different tables or passages of the source.

Target: T1, truncated human beta-secretase (residues 1-458, His6-tagged at the C-terminus) (Homo sapiens, UniProt P56817)
T1 construct: truncated human beta-secretase (residues 1-458, His6-tagged at the C-terminus); His6 (C); made in house; host or cells: insect cells D. melanogaster S2 (baculovirus expression system (so in the source))
Assay: BACE fluorescence quench assay
Type: biochemical
Description: The assay was performed at room temperature in 96-well white opaque Optiplates aque Optiplates (PerkinElmer, Waltham, Mass.) in a total volume of 200 μl of the incubation mixture containing 50 mM sodium acetate buffer, pH 4.5, 0.4 μM FRET substrate, 2.4 nM enzyme, 5% DMSO, and 0.05% Brij-35. The tested compounds were serially diluted in DMSO and pre-incubated with the substrate. The reaction was started by addition of enzyme, and the progress of the reaction was followed by measuring fluorescence with an excitation wavelength of 480 nm and an emission wavelength of 520 nm. Ten measurements were taken every 5-10 min, and the intensity of fluorescence was regressed against time in order to derive velocities of reaction in all 96 wells. […] IC50 values were calculated by fitting percent inhibition vs. inhibitor concentration into a four-parametric logistic model using XLFit software (IDBS, Guildford, UK).

[1] = in vitro enzyme activity, BACE fluorescence assay, pH 4.5, read-out: IC50

T1 sequence (P56817 22-458): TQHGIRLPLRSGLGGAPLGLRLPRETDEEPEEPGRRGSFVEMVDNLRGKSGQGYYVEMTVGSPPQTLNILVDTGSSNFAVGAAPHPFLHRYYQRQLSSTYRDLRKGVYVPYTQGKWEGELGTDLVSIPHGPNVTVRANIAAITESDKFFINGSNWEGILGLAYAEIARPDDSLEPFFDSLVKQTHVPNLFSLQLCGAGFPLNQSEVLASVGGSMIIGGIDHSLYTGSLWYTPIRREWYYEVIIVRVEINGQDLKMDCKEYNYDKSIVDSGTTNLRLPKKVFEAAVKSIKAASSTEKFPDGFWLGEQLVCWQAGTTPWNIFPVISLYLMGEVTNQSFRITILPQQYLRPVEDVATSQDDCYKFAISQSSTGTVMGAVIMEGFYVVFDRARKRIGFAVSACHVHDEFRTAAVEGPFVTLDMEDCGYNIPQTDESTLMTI

Structure (SMILES) | IC50 [1] | IC50
CN1C(=O)[C@@]2(C[C@H](c3ccccc3)Oc3ccc(-c4cccc(C#N)c4)cc32)N=C1N (racemic) [Compound 2a, 3-(2′-amino-1′-methyl-5′-oxo-2-phenyl-1′,5′-dihydrospiro[chroman-4,4′-imidazole]-6-yl)benzonitrile] | 0.001 to 0.1 µM | 
CN1C(=O)[C@@]2(C[C@H](c3ccccc3)Oc3ccc(Br)cc32)N=C1N (racemic) [Compound 44a, Trans-2′-amino-6-bromo-1′-methyl-2-phenylspiro[chroman-4,4′-imidazol]-5′(1′H)-one] |  | 5 to 10 µM
CN1O[C@@]2(C[C@H]([C@@H]3CCCOC3)Oc3ccc(-c4cc(F)cc(F)c4)cc32)N=C1N (racemic) [Compound 326, (2S,4S/2R,4R)-6-(3,5-difluorophenyl)-2′-methyl-2-((S/R)-tetrahydro-2H-pyran-3-yl)-2′H-spiro[chroman-4,5′-[1,2,4]oxadiazol]-3′-amine] | 0.1 to 0.5 µM | 
CN1C(=O)[C@@]2(C[C@@H](c3ccccc3)Oc3ccc(Br)cc32)N=C1N (relative stereo) [Compound 44b, Cis-2′-amino-6-bromo-1′-methyl-2-phenylspiro[chroman-4,4′-imidazol]-5′(1′H)-one] |  | 5 to 10 µM
CN1O[C@@]2(C[C@@]3(CCOC3)Oc3ccc(-c4cccc(C#N)c4)cc32)N=C1N (relative stereo) [Compound 113a] | 0.5 to 1 µM | 
CN1C(=O)[C@@]2(CC(c3cccs3)Oc3ccc(-c4cccc(C#N)c4)cc32)N=C1N (stereo in doubt) [Compound 8a, 3-((2S,4S)-2′-amino-1′-methyl-5′-oxo-2-(thiophen-2-yl)-1′,5′-dihydrospiro[chroman-4,4′-imidazole]-6-yl)benzonitrile] | 0.1 to 0.5 µM | 
CN1C(=O)[C@@]2(CC(c3cccs3)Oc3ccc(-c4cccc(C#N)c4)cc32)N=C1N (stereo in doubt) [Compound 8b, 3-((2R,4S)-2′-Amino-1′-methyl-5′-oxo-2-(thiophen-2-yl)-1′,5′-dihydrospiro[chroman-4,4′-imidazole]-6-yl)-benzonitrile] | 1 to 5 µM | 
CN1O[C@]2(C[C@@H](C[C@H]3CCCO3)Oc3ccc(-c4cccc(C#N)c4)cc32)N=C1N (stereo in doubt) [Compound 360, 3-(3′-amino-2′-methyl-2-((tetrahydrofuran-2-yl)methyl)-2′H-spiro[chroman-4,5′-[1,2,4]oxadiazole]-6-yl)benzonitrile] | 0.5 to 1 µM | 
CN1O[C@]2(C[C@H](CC3CCCO3)Oc3ccc(-c4cccc(C#N)c4)cc32)N=C1N (stereo in doubt) [Compound 366, 3-(3′-amino-2′-methyl-2-((tetrahydrofuran-2-yl)methyl)-2′H-spiro[chroman-4,5′-[1,2,4]oxadiazole]-6-yl)benzonitrile] | 0.5 to 1 µM | 
CN1O[C@]2(C[C@@H](C[C@@H]3CCCO3)Oc3ccc(-c4cccc(C#N)c4)cc32)N=C1N (stereo in doubt) [Compound 367, 3-(3′-amino-2′-methyl-2-((tetrahydrofuran-2-yl)methyl)-2′H-spiro[chroman-4,5′-[1,2,4]oxadiazole]-6-yl)benzonitrile] | 0.5 to 1 µM | 
CN1C(=O)C2(CC(C3CCCOC3)Oc3ccc(-c4cccc(C#N)c4)cc32)N=C1N (stereo not drawn) [Compound 1, 3-(2′-amino-1′-methyl-5′-oxo-2-(tetrahydro-2H-pyran-3-yl)-1′,5′-dihydrospiro[chroman-4,4′-imidazole]-6-yl)benzonitrile] | 0.001 to 0.1 µM | 
CN1C(=O)C2(CC(c3ccccc3)Oc3ccc(-c4cccc(C#N)c4)cc32)N=C1N (stereo not drawn) [Compound 2, 3-(2′-amino-1′-methyl-5′-oxo-2-phenyl-1′,5′-dihydrospiro[chroman-4,4′-imidazole]-6-yl)benzonitrile] | 0.1 to 0.5 µM | 
CN1C(=O)[C@@]2(C[C@@H](c3ccccc3)Oc3ccc(-c4cccc(C#N)c4)cc32)N=C1N [Compound 2b] | 0.001 to 0.1 µM | 
CN1C(=O)C2(CC(C3CCCCC3)Oc3ccc(-c4cccc(C#N)c4)cc32)N=C1N (stereo not drawn) [Compound 3, 3-(2′-amino-2-cyclohexy-1′-methyl-5′-oxo-1′,5′-dihydrospiro[chroman-4,4′-imidazole]-6-yl)benzonitrile] | 0.1 to 0.5 µM | 
CN1C(=O)C2(CC(c3ccccc3)Oc3ccc(-c4ccc(F)c(C#N)c4)cc32)N=C1N (stereo not drawn) [Compound 4, 5-(2′-amino-1′-methyl-5′-oxo-2-phenyl-1′,5′-dihydrospiro[chroman-4,4′-imidazole]-6-yl)-2-fluorobenzonitrile] |  | 0.1 to 0.5 µM
CN1C(=O)C2(CC(c3ccccc3)Oc3ccc(-c4cncc(C#N)c4)cc32)N=C1N (stereo not drawn) [Compound 5, 5-(2′-amino-1′-methyl-5′-oxo-2-phenyl-1′,5′-dihydrospiro[chroman-4,4′-imidazole]-6-yl)nicotinonitrile] |  | 0.1 to 0.5 µM
CN1C(=O)C2(CC(c3ccc(Cl)cc3)Oc3ccc(-c4cccc(C#N)c4)cc32)N=C1N (stereo not drawn) [Compound 6] | 0.1 to 0.5 µM | 
CN1C(=O)C2(CC(c3cccc(F)c3)Oc3ccc(-c4cccc(C#N)c4)cc32)N=C1N (stereo not drawn) [Compound 7] | 0.1 to 0.5 µM | 
CN1C(=O)C2(CC(c3ccccc3F)Oc3ccc(-c4cccc(C#N)c4)cc32)N=C1N (stereo not drawn) [Compound 9, 3-(2′-amino-2-(2-fluorophenyl)-1′-methyl-5′-oxo-1′,5′-dihydrospiro[chroman-4,4′-imidazole]-6-yl)benzonitrile] | 0.1 to 0.5 µM | 
N#Cc1cccc(-c2ccc3c(c2)C2(CC(c4ccccc4)O3)N=C(N)N(CCC3CC3)C2=O)c1 (stereo not drawn) [Compound 10] | 0.1 to 0.5 µM | 
CN1C(=O)C2(CC(c3ccccc3)Oc3ccc(-c4cccc(C5CC5)c4)cc32)N=C1N (stereo not drawn) [Compound 11, 2′-amino-6-(3-cyclopropylphenyl)-1′-methyl-2-phenylspiro[chroman-4,4′-imidazol]-5′(1′H)-one] | 0.1 to 0.5 µM | 
CCN1C(=O)C2(CC(c3ccccc3)Oc3ccc(-c4cccc(C#N)c4)cc32)N=C1N (stereo not drawn) [Compound 12, 3-(2′-amino-1′-ethyl-5′-oxo-2-phenyl-1′,5′-dihydrospiro[chroman-4,4′-imidazole]-6-yl)benzonitrile] | 0.1 to 0.5 µM | 
COc1cccc(-c2ccc3c(c2)C2(CC(c4ccccc4)O3)N=C(N)N(C)C2=O)c1 (stereo not drawn) [Compound 13, 2′-amino-6-(3-methoxyphenyl)-1′-methyl-2-phenylspiro[chroman-4,4′-imidazol]-5′(1′H)-one] |  | 0.1 to 0.5 µM
CN1C(=O)C2(CC(c3cccc(F)c3F)Oc3ccc(-c4cccc(C#N)c4)cc32)N=C1N (stereo not drawn) [Compound 14, 3-(2′-amino-2-(2,3-difluorophenyl)-1′-methyl-5′-oxo-1′,5′-dihydrospiro[chroman-4,4′-imidazole]-6-yl)benzonitrile] | 0.1 to 0.5 µM | 
CN1C(=O)C2(CC(c3ccccc3)Oc3ccc(-c4cccnc4)cc32)N=C1N (stereo not drawn) [Compound 15, 2′-amino-1′-methyl-2-phenyl-6-(pyridin-3-yl)spiro[chroman-4,4′-imidazol]-5′(1′H)-one] |  | 0.5 to 1 µM
CN1C(=O)C2(CC(c3ccc(C(F)(F)F)cc3)Oc3ccc(-c4cccc(C#N)c4)cc32)N=C1N (stereo not drawn) [Compound 16] | 0.5 to 1 µM | 
CN1C(=O)C2(CC(c3ccccc3)Oc3ccc(-c4cc(N)cc(C#N)c4)cc32)N=C1N (stereo not drawn) [Compound 17, 3-amino-5-(2′-amino-1′-methyl-5′-oxo-2-phenyl-1′,5′-dihydrospiro[chroman-4,4′-imidazole]-6-yl)benzonitrile] | 0.5 to 1 µM | 
